Counter-ions that a name gives are not always drawn.
target: T1, GPR40 (Homo sapiens, UniProt O14842); assay: GPR40 SAR Primary Assay (Elk-1/Gal4-luc+ reporter, luciferase activity); format: cell-based; conditions: stable GPR40 Elk-1/Gal4-luc+ CHO cell line, 5 hours incubation
T1 construct: expressed in transfected cells
Experimental: An existing stable GPR40 Elk-1/Gal4-luc^+ CHO cell line generated by electroporation and functional cloning was used. Cells were maintained in a humidified incubator at 37° C./5% CO2 in complete media containing DMEM/F12 (Gibco, #11039-021), 5% FBS (Gibco, #16140-071) and 1% Glutamine (Gibco, #25030-081). Cell maintenance passages were made at 1:40 dilution every 3-4 days. Forty eight hours prior to assay, 15e6 cells were added to 200 ml of complete media then seeded into a 1200 cm^2-cell factory and returned to a humidified incubator at 37° C./5% CO2. 20 hours prior to assay, the growth media was removed and replaced with 200 ml of serum-free DMEM/F12 to quiesce background activity. At the time of assay, cells were harvested using non-enzymatic cell dissociation solution (Sigma, #C-5914), washed and counted. The 20 hour starve media was collected and used as condition media for cell assay plating. Cells were plated at a concentration of 10,000 cells/well in a total well volume of […] in black 96-well clear bottom polystyrene plates (CoStar, #3904). Test compounds were prepared as serial dilutions in 100% DMSO, then 1 ul was delivered to each well resulting in a final concentration of 1% DMSO. The plates were then returned to a humidified incubator at 37° C./5% CO2 for 5 hours. Following the incubation, the medium was replaced with 50 ul of a 1:1 mixture of SteadyGlo™ (Promega, #E2550) and dPBS containing 1 mM CaCl2 and 1 mM MgCl2. Plates were then sealed and subjected to dark adaptation at room temperature for 10 minutes. Luciferase activity was measured on a Packard TopCount™ microplate scintillation counter using 2 seconds per well count time.
Data analysis was performed using standard methods.
The Normalization Equation used was 100*(Unknown compound response−Background response)/(Agonist Max response−Background response).
The Curve Fit Function used was y=((Vmax*x^n)/(K^n+x^n))+Y2.
A percent max response and pEC50 were recorded for each compound. Although specific pEC50 values are given, these values should be considered exemplary. Those skilled in the art will appreciate the variability in performing and recording the biological activity assays that are herein described. The compounds of the present invention provide a pEC50 of at least 5.0.

T1 sequence (O14842 whole entry, the tested form may be a part): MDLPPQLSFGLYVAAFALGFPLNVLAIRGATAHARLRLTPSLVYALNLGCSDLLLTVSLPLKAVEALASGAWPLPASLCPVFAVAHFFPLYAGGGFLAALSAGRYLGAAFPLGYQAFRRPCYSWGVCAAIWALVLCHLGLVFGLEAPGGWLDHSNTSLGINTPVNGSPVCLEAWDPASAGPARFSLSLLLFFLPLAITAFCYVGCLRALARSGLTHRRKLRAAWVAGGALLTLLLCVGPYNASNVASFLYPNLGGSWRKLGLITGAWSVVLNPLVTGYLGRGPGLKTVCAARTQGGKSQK

Row | SMILES | EC50
1 | O=C(O)C1CC1c1ccc(NCc2cccc(Oc3ccccc3)c2)cc1 (racemic) [Example 1, Racemic-(trans)-2-[4-({[3-(phenyloxy)phenyl]methyl}ammonium)phenyl]cyclopropanecarboxylic Acid Trifluoroacetate] | 12.6 nM
2 | O=C(O)[C@@H]1C[C@H]1c1ccc(NCc2ccc(-c3ccccc3)cc2)cc1 (racemic) [Example 2, Racemic-(trans)-2-{4-[(4-biphenylylmethyl)amino]phenyl}cyclopropanecarboxylic Acid] | 25.1 nM
3 | O=C(O)[C@@H]1C[C@H]1c1ccc(NCc2ccc(-c3ccccn3)cc2)cc1 (racemic) [Example 3, Racemic-(trans)-2-[4-({[4-(2-pyridinyl)phenyl]methyl}amino)phenyl]cyclopropanecarboxylic Acid] | 1580 nM
4 | O=C(O)C1CC1c1ccc(NCc2cccc(Oc3ccc(Cl)c(Cl)c3)c2)cc1 (racemic) [Example 4, Racemic-(trans)-2-{4-[({3-[(3,4-dichlorophenyl)oxy]phenyl}methyl)ammonium]phenyl}-cyclopropanecarboxylic Acid Trifluoroacetate] | 2 nM
5 | COc1ccc(Oc2cccc(CNc3ccc(C4CC4C(=O)O)cc3)c2)cc1 (racemic) [Example 5, Racemic-(trans)-2-(4-{[(3-{[4-(methyloxy)phenyl]oxy}phenyl)methyl]ammonium}phenyl)-cyclopropanecarboxylic Acid Trifluoroacetate] | 20 nM
6 | O=C(O)C1CC1c1ccc(NCc2cccc(Oc3ccc(Cl)cc3)c2)cc1 (racemic) [Example 6, Racemic-(trans)-2-{4-[({3-[(4-chlorophenyl)oxy]phenyl}methyl)ammonium]phenyl}-cyclopropanecarboxylic Acid Trifluoroacetate] | 15.8 nM
7 | CC(C)(C)c1ccc(Oc2cccc(CNc3ccc(C4CC4C(=O)O)cc3)c2)cc1 (racemic) [Example 7, Racemic-(trans)-2-(4-{[(3-{[4-(1,1-dimethylethyl)phenyl]oxy}phenyl)methyl]ammonium}phenyl)cyclopropanecarboxylic Acid Trifluoroacetate] | 20 nM
8 | O=C(O)C1CC1c1ccc(NCc2cccc(Oc3cc(Cl)cc(Cl)c3)c2)cc1 (racemic) [Example 8, Racemic-(trans)-2-{4-[({3-[(3,5-dichlorophenyl)oxy]phenyl}methyl)ammonium]phenyl}-cyclopropanecarboxylic Acid Trifluoroacetate] | 6.31 nM
9 | O=C(O)C1CC1c1ccc(NCc2cccc(Oc3cccc(C(F)(F)F)c3)c2)cc1 (racemic) [Example 9, Racemic-(trans)-2-(4-{[(3-{[3-(trifluoromethyl)phenyl]oxy}phenyl)methyl]ammonium}-phenyl)cyclopropanecarboxylic Acid Trifluoroacetate] | 7.94 nM
10 | Cc1ccc(Oc2cccc(CNc3ccc(C4CC4C(=O)O)cc3)c2)cc1 (racemic) [Example 10, Racemic-(trans)-2-{4-[({3-[(4-methylphenyl)oxy]phenyl}methyl)ammonium]phenyl}-cyclopropanecarboxylic Acid Trifluoroacetate] | 10 nM
11 | O=C(O)C1CC1c1ccc(NCc2cccc(OCc3ccccc3)c2)cc1 (racemic) [Example 11, Racemic-(trans)-2-{4-[({3-[(phenylmethyl)oxy]phenyl}methyl)ammonium]phenyl}-cyclopropanecarboxylic Acid Trifluoroacetate] | 126 nM
12 | Cc1nc(Oc2ccccc2)sc1CNc1ccc(C2CC2C(=O)O)cc1 (racemic) [Example 12, Racemic-(trans)-2-[4-({[4-methyl-2-(phenyloxy)-1,3-thiazol-5-yl]methyl}ammonium)-phenyl]cyclopropanecarboxylic Acid Trifluoroacetate] | 398 nM
13 | Cc1nc(-c2ccc(C(F)(F)F)cc2)sc1CNc1ccc([C@@H]2C[C@H]2C(=O)O)cc1 (racemic) [Example 13, Racemic-(trans)-2-{4-[({4-methyl-2-[4-(trifluoromethyl)phenyl]-1,3-thiazol-5-yl}methyl)amino]phenyl}cyclopropanecarboxylic Acid] | 20 nM
14 | CC(C)c1nc(-c2ccc(C(F)(F)F)cc2)sc1CNc1ccc([C@@H]2C[C@H]2C(=O)O)cc1 (racemic) [Example 14, Racemic-(trans)-2-{4-[({4-isopropyl-2-[4-(trifluoromethyl)phenyl]-1,3-thiazol-5-yl}methyl)amino]phenyl}cyclopropanecarboxylic Acid] | 15.8 nM
15 | O=C(O)[C@@H]1C[C@H]1c1ccc(NCc2ccc(-c3ccc(Cl)cc3)o2)cc1 (racemic) [Example 15, Racemic-(trans)-2-[4-({[5-(4-chlorophenyl)-2-furanyl]methyl}amino)phenyl]cyclopropanecarboxylic Acid] | 126 nM
16 | O=C(O)[C@@H]1C[C@H]1c1ccc(NCc2ccc(OCc3ccccc3)cc2)cc1 (racemic) [Example 16, Racemic-(trans)-2-{4-[({4-[(phenylmethyl)oxy]phenyl}methyl)amino]phenyl}cyclopropanecarboxylic Acid trifluoroacetate] | 63.1 nM
17 | Cc1nc(Oc2ccc(F)c(F)c2)sc1CNc1ccc([C@@H]2C[C@H]2C(=O)O)cc1 (racemic) [Example 17, Racemic-(trans)-2-{4-[({2-[(3,4-difluorophenyl)oxy]-4-methyl-1,3-thiazol-5-yl}methyl)amino]phenyl}cyclopropanecarboxylic Acid] | 251 nM
18 | O=C(O)[C@@H]1C[C@H]1c1ccc(NCc2ccc(-c3ccc(C(F)(F)F)cc3)o2)cc1 (racemic) [Example 18, Racemic-(trans)-2-{4-[({5-[4-(trifluoromethyl)phenyl]-2-furanyl}methyl)amino]phenyl}cyclopropanecarboxylic Acid Trifluoroacetate] | 251 nM
19 | O=C(O)[C@@H]1C[C@H]1c1ccc(NCc2ccc(-c3ccc(C(F)(F)F)cc3)s2)cc1 (racemic) [Example 19, Racemic-(trans)-2-{4-[({5-[4-(trifluoromethyl)phenyl]-2-thienyl}methyl)amino]phenyl}cyclopropanecarboxylic Acid Trifluoroacetate] | 63.1 nM
20 | O=C(O)[C@@H]1C[C@H]1c1ccc(NCc2cc(-c3ccc(C(F)(F)F)cc3)co2)cc1 (racemic) [Example 20, Racemic-(trans)-2-{4-[({4-[4-(trifluoromethyl)phenyl]-2-furanyl}methyl)amino]phenyl}cyclopropanecarboxylic Acid] | 158 nM
21 | O=C(O)[C@H]1C[C@@H]1c1ccc(NCc2cccc(Cc3ccccc3)c2)cc1 (racemic) [Example 21, Racemic-(trans)-2-[4-({[3-(phenylmethyl)phenyl]methyl}amino)phenyl]cyclopropanecarboxylic Acid Trifluoroacetate] | 25.1 nM
22 | O=C(O)[C@H]1C[C@@H]1c1ccc(NCc2cccc(Oc3ccc([N+](=O)[O-])cc3)c2)cc1 (racemic) [Example 22, Racemic-(trans)-2-{4-[({3-[(4-nitrophenyl)oxy]phenyl}methyl)amino]phenyl}cyclopropanecarboxylic Acid Trifluoroacetate] | 316 nM
23 | O=C(O)[C@H]1C[C@@H]1c1ccc(NCc2cccc(Sc3ccccc3)c2)cc1 (racemic) [Example 23, Racemic-(trans)-2-[4-({[3-(phenylthio)phenyl]methyl}amino)phenyl]cyclopropanecarboxylic Acid Trifluoroacetate] | 31.6 nM
